Test results as given in PubChem BioAssay AID179 (DTP/NCI, 2004).
Activity calls are given as the source filed them.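 The calls were made as follows: active = compounds giving half or more protection of infected cells from virus-caused growth loss, again on retest; inactive = the rest.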

System: CEM cells HIV-1 protection, formazan growth assay
Test: NCI AIDS Antiviral Assay
Details: for IC50: measured here: growth of uninfected CEM cells
Protocol: The ability of compounds to protect human CEM cells from HIV-1 infection is measured as a screen for new compounds capable of inhibiting the HIV virus. Five concentrations of drug were tested on uninfected and infected cells and cell growth was measured using a soluble formazan assay. […] Compounds that provided at least 50% protection were retested. Compounds that provided at least 50% protection on retest were listed as moderately active. Compounds that reproducibly provided 100% protection were listed as confirmed active. […] Note that the inability to provide protection could be due to toxicity.

Row | Compound | EC50 [µM] | IC50 [µM] | outcome
1 | O=[As](O)(O)c1ccccc1F | > 200 | 141 | –
2 | NNC1=N/C(=C\c2ccco2)C(=O)N1 | > 200 | 162 | –
3 | S=C(S)N1CCCCC1 | > 200 | – | –
4 | CCCCCOC(=O)c1cccc(NC(=O)CN(CC)CC)c1 | > 200 | 95.5 | –
5 | CCN(CC)CCC(=O)NC1c2ccccc2Sc2c(C)cccc21 (stereo unspecified) | > 513 | 44.7 | –
6 | O=S1(=O)OCCOS(=O)(=O)C1Br | > 891 | 331 | –
7 | COC1(OC)C2(Cl)C(Cl)=C(Cl)C1(Cl)C1C=CC=CC12 (stereo unspecified) | – | – | inactive
8 | CC(C)COC(=N)c1ccccc1C1(O)CCCCC1 | > 200 | 117 | –
9 | O=C(NCCCCl)c1c(O)c2ccccc2[nH]c1=O | > 200 | 81.3 | –
10 | NC(=O)c1sc2nc3ccccc3n2c1N | > 200 | > 200 | –
11 | CN1c2ccccc2S(=O)(=O)n2c(CCc3ccccc3)nnc21 | > 105 | > 105 | –
12 | CN1CCCNCCN(CCc2ccccn2)CCCN(C)CC1 | > 132 | > 132 | –
13 | COC(=O)C1(CC(=O)OC(C)(C)C)NCCc2c1[nH]c1ccccc21 (stereo unspecified) | > 115 | 95.5 | –
14 | O=c1c2ccccc2nc2[nH]ncn12 | > 200 | 117 | –
15 | COc1ccc(N[C@H](CS(=O)c2ccc(C)cc2)C(F)(F)F)cc1 (stereo partly specified) | > 200 | > 200 | –
16 | COC(=O)C1CC2c3[nH]c4ccccc4c3CCN2C1 (stereo unspecified) | > 275 | > 275 | –
17 | C[C@@H](c1ccccc1)N1CO[C@@]2(C#Cc3ccc4c(c3)OCO4)CCC[C@@H]12 | > 200 | 33.1 | –
18 | C[n+]1c(-c2ccc(/C=N/Nc3n[nH]c(=S)n3N/N=C/c3ccc(-c4cn5ccccc5[n+]4C)cc3)cc2)cn2ccccc21 | 18.6 | > 200 | –
19 | CCN(CC)CN1C(=O)C(=O)c2ccccc21 | > 200 | > 200 | –
20 | COc1ccc(NC(=S)N/N=C/c2cccc(C)n2)cc1 | > 200 | 4.9 | –
21 | Cc1cc2nc(NS(=O)(=O)c3cc(C)c(Cl)cc3S)[nH]c2cc1C | > 200 | > 200 | –
22 | N.N.N.N.N.N.O=N[O-].[Br-].[Co+3].[Co+3].[OH3+].[OH3+] | – | – | inactive

Row | Compound | EC50 [µM] | IC50 [µM] | outcome
23 | Cc1cc(=O)oc2c1cc1ccc3cccc4ccc2c1c34 | – | – | inactive
24 | Cc1nc2c(-c3ccccc3)[nH]c(C)c2c(=O)o1 | > 200 | 69.2 | –
25 | COc1ccc(NC(=O)C(=O)Cc2nc3ccc([N+](=O)[O-])cc3[nH]c2=O)c(OC)c1 | > 17.4 | > 17.4 | –
26 | CCCCC1(NN=C2CCCCC2)C(=O)N(c2ccccc2)N(c2ccccc2)C1=O | > 200 | 102 | –
27 | c1sc(NC2=NCCO2)c2c1CCCC2 | > 200 | 166 | –
28 | C=C(C)C(OC(C)=O)C(OC(C)=O)c1c(OC)ccc2ccc(=O)oc12 (stereo unspecified) | > 50.1 | > 50.1 | –
29 | COC(OC)C1(c2ccccc2)Oc2ccccc2C1=O (stereo unspecified) | > 166 | 81.3 | –
30 | Cc1ccc(-c2c(C#N)c(-c3ccc(C)cc3)n(NS(=O)(=O)c3ccccc3)c(=O)c2C#N)cc1 | > 200 | 22.9 | –
31 | C=CCC1C(=O)CC2(C)C(CC=C)C(=O)CC12C (stereo unspecified) | – | – | inactive
32 | CCOC(=O)CC/C(=N/Nc1ccc(Cl)cc1[N+](=O)[O-])C(=O)OCC | > 200 | > 200 | –
33 | COC(=O)c1cc(C(=CCCCCCl)c2cc(Cl)c(OC)c(C(=O)OC)c2)cc(Cl)c1OC | 29.5 | > 200 | –
34 | COc1ccc2cc(C(=O)Nc3ccc(O)c(C(=O)O)c3)ccc2c1OC | > 200 | > 200 | –
35 | COC(COC(N)=O)C1=C(N2CC2)C(=O)C(C)=C(N2CC2)C1=O (stereo unspecified) | > 2 | 0.0166 | –
36 | Cn1c(=O)c(C(=O)NC(=O)NCCCCCOC(=O)CCCCCCCCCCC(=O)OCCCCCNC(=O)NC(=O)c2cn(Cc3ccccc3)c(=O)n(C)c2=O)cn(Cc2ccccc2)c1=O | > 7.41 | > 7.41 | –
37 | OCCN1CCN(CCCN2c3cc(Cl)ccc3Sc3ccsc32)CC1 | > 316 | 15.5 | –
38 | OC1COCOC1C(O)C1OCOCC1O (stereo unspecified) | > 200 | > 200 | –
39 | Oc1ccc(-c2ccc(O)cc2O)c(O)c1 | > 200 | 132 | –
40 | O=C1CCCC/C1=C1/SC(=Nc2ccccc2)C(=Nc2ccccc2)N1c1ccccc1 | > 200 | > 200 | –
41 | FC(F)(F)/C(=N/Nc1ccccc1)SS/C(=N\Nc1ccccc1)C(F)(F)F | > 200 | 38 | –
42 | O=c1oc(-c2ccccc2)c(-c2ccccc2)n1-c1ccc(Br)cc1 | > 100 | > 100 | –
43 | COC(=O)C(=O)C1CCCCC(C2=NC3NN=C(N)N3C2=O)C1=O (stereo unspecified) | > 21.4 | > 21.4 | –
